Laboratory results published in patent publication US9144557B2, “Hematopoietic growth factor mimetic small molecule compounds and their uses” (Ligand Pharmaceuticals Inc., priority 2009, dated 2015).

Tested on: UT7/EPO Cell line
Test: Cell Proliferation Assay (UT7/EPO, ViaLight Plus)
Format: cell-based, human
Conditions: proliferative effect; compounds at 10 uM; UT7/EPO cells starved of EPO overnight; 72 hours at 37° C.; ViaLight Plus kit
Outline: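 UT7/EPO human leukemia cells (endogenous EPO receptor, EPO-dependent growth) were EPO-starved overnight, then exposed to compounds at 10 uM for 72 hours at 37° C. Proliferation was read out by ATP-based luminescence (ViaLight Plus).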

In the case of O=C(Nc1ccc2c(c1)ncn2-c1ccc(NC(=O)C2CC2)cc1)c1ccc(N2CCC(O)CC2)cc1 [Compound 560, N-(4-(5-(4-(4-Hydroxypiperidin-1-yl)benzamido)-1H-benzimidazol-1-yl)phenyl)cyclopropylcarboxamide], the “Activity (%)” value is reported as 14%.

With O=C(Nc1ccc(Nc2ccc(NC(=O)c3cccc(O)c3)cc2)cc1)c1cccc(O)c1 [Compound 570, N,N′-(4,4′-Azanediylbis(4,1-phenylene))bis(3-hydroxybenzamide)] the “Activity (%)” value was 11%.

Nc1ccc(C(=O)Nc2ccc(Nc3ccc(NC(=O)c4ccc(N)cc4)cc3)cc2)cc1 [Compound 580, N,N′-(4,4′-Azanediylbis(4,1-phenylene))bis(4-aminobenzamide)] was tested, and the “Activity (%)” value was 16%.

For O=C(Nc1ccc(Nc2ccc(NC(=O)c3ccc4[nH]cnc4c3)cc2)cc1)c1ccc2[nH]cnc2c1 [Compound 590, N,N′-(4,4′-Azanediylbis(4,1-phenylene))bis(1H-benzimidazole-5-carboxamide)], the “Activity (%)” value was 12%.

With O=C(Nc1ccc(C(=O)c2ccc(NC(=O)c3ccno3)cc2)cc1)c1ccc(N2CCOCC2)cc1 [Compound 600, 4-Morpholino-N-(4-(4-(isoxazole-5-carboxamido)benzoyl)phenyl)benzamide] the “Activity (%)” value was 11%.

O=C(Nc1ccc(C(=O)c2ccc(NC(=O)c3c[nH]nn3)cc2)cc1)c1ccc(N2CCOCC2)cc1 [Compound 610, 4-Morpholino-N-(4-(4-(1,2,3-triazole-4-carboxamido)benzoyl)phenyl)benzamide] was tested, and the “Activity (%)” value was 14%.

In the case of Cc1cc(C(=O)Nc2ccc(C(=O)c3ccc(NC(=O)c4ccc(N5CCOCC5)cc4)cc3)cc2)cc(Cl)n1 [Compound 620, 4-Morpholino-N-(4-(4-(2-chloro-6-methylpyridine-4-carboxamido)benzoyl)phenyl)benzamide], the “Activity (%)” value is reported as 18%.

O=C(Nc1ccc(N2CCOCC2)cc1)c1ccc(-c2nc3ccc(OCc4ccccc4)cc3[nH]2)cc1 [Compound 639, 4-(6-Benzyloxy-1H-benzo[d]imidazol-2-yl)-N-(4-morpholinophenyl)benzamide] was tested, and the “Activity (%)” value was 15%.

O=C(Nc1ccc2cc[nH]c2c1)c1ccc(-c2nc3ccc(-c4cccnc4)cc3[nH]2)cc1 [Compound 650, N-(1H-indol-6-yl)-4-(6-(pyridin-3-yl)-1H-benzo[d]imidazol-2-yl)-benzamide] was tested, and the “Activity (%)” value was 13%.

With Cc1noc(COc2ccc3nc(-c4ccc(C(=O)Nc5ccc6cc[nH]c6c5)cc4)[nH]c3c2)n1 [Compound 660, 4-(6-((3-Methyl-1,2,4-oxadiazol-5-yl)methoxy)-1H-benzo[d]imidazol-2-yl)-N-(1H-indol-6-yl)benzamide] the “Activity (%)” value was 14%.

In the case of COCCOc1ccc2nc(-c3ccc(C(=O)Nc4ccc(N5CCC(O)CC5)cc4)cc3)[nH]c2c1 [Compound 670, N-(4-(4-Hydroxypiperidin-1-yl)phenyl)-4-(6-(2-methoxyethoxy)-1H-benzo[d]imidazol-2-yl)benzamide], the “Activity (%)” value is reported as 8%.

In the case of O=C(C1CC1)N1CCN(c2ccc(-c3nc4ccc(-c5ccc(O)cc5)cc4[nH]3)cc2)CC1 [Compound 680, Cyclopropyl(4-(4-(6-(4-hydroxyphenyl)-1H-benzo[d]imidazol-2-yl)phenyl)piperazin-1-yl)methanone], the “Activity (%)” value is reported as 10%.

With O=C(Nc1ccc(C(=O)c2ccc(NC(=O)c3cccc4cc[nH]c34)cc2)cc1)c1ccc(N2CCC(O)CC2)cc1 [Compound 690, N-(4-(4-(4-(4-Hydroxypiperidin-1-yl)benzamido)benzoyl)phenyl)-1H-indolyl-7-carboxamide] the “Activity (%)” value was 16%.

With Cn1nccc1C(=O)Nc1ccc(C(=O)c2ccc(NC(=O)c3ccc(N4CCC(O)CC4)cc3)cc2)cc1 [Compound 720, N-(4-(4-(4-(4-Hydroxypiperidin-1-yl)benzamido)benzoyl)phenyl)-1-methyl-1H-pyrazole-5-carboxamide] the “Activity (%)” value was 16%.

Cn1cccc1C(=O)Nc1ccc(C(=O)c2ccc(NC(=O)c3ccc(N4CCC(O)CC4)cc3Cl)cc2)cc1 [Compound 730, N-(4-(4-(2-Chloro-4-(4-hydroxypiperidin-1-yl)benzamido)benzoyl)phenyl)-1-methyl-1H-pyrrole-2-carboxamide] was tested, and the “Activity (%)” value was 18%.

For Cn1cccc1C(=O)Nc1ccc(N(C(=O)c2cccn2C)c2ccc(NC(=O)c3ccc(N4CCC(O)CC4)cc3)cc2)cc1 [Compound 745], the “Activity (%)” value was 17%.

In the case of Cc1ccc(C(=O)Nc2ccc(Nc3ccc(NC(=O)c4ccc(N5CCC(O)CC5)cc4)cc3)c(F)c2)n1C [Compound 760, N-(3-Fluoro-4-((4-(4-(4-hydroxypiperidin-1-yl)benzamido)phenyl)amino)phenyl)-1,5-dimethyl-1H-pyrrole-2-carboxamide], the “Activity (%)” value is reported as 21%.

In the case of O=C(Nc1ccc(Nc2ccc(NC(=O)c3ccc4c(ccn4CCO)c3)cc2)cc1)c1ccc(N2CCC(O)CC2)cc1 [Compound 775], the “Activity (%)” value is reported as 22%.

With Cc1cc(C(=O)Nc2ccc(Nc3ccc(NC(=O)c4ccc(N5CCC(O)CC5)cc4)cc3)cc2)c(C)[nH]1 [Compound 790] the “Activity (%)” value was 18%.

With Cn1cccc1C(=O)Nc1ccc(Nc2ccc(NC(=O)c3ccc(N4CCC(CO)CC4)cc3)cc2)cc1 [Compound 800, N-(4-((4-(4-(4-Hydroxymethylpiperidin-1-yl)benzamido)phenyl)amino)phenyl)-1-methyl-1H-pyrrole-2-carboxamide] the “Activity (%)” value was 23%.

In the case of Cn1cccc1C(=O)Nc1ccc(Nc2ccc(NC(=O)c3ccc(N4CCC(O)CC4)c(F)c3)cc2)cc1 [Compound 815, N-(4-((4-(3-Fluoro-4-(4-hydroxypiperidin-1-yl)benzamido)phenyl)amino)phenyl)-1-methyl-1H-pyrrole-2-carboxamide], the “Activity (%)” value is reported as 17%.

For CCOC(=O)Cn1c(Cl)ccc1C(=O)Nc1ccc(Nc2ccc(NC(=O)c3ccc(N4CCC(O)CC4)cc3)cc2)cc1 [Compound 830, Ethyl 2-(2-chloro-5-((4-((4-(4-(4-hydroxypiperidin-1-yl)benzamido)phenyl)amino)phenyl)carbamoyl)-1H-pyrrol-1-yl)acetate], the “Activity (%)” value was 15%.

With O=C(Nc1ccc(Nc2ccc(NC(=O)c3cc[nH]c3)cc2)c(F)c1)c1ccc(N2CCC(O)CC2)cc1 [Compound 860, N-(4-((2-Fluoro-4-(4-(4-hydroxypiperidin-1-yl)benzamido)phenyl)amino)phenyl)-1H-pyrrole-3-carboxamide] the “Activity (%)” value was 17%.

In the case of N#Cc1cc(NC(=O)c2ccc(N3CCC(C(F)(F)F)CC3)cc2)ccc1Nc1ccc(NC(=O)c2cc[nH]c2)cc1 [Compound 885, N-(4-((2-Cyano-4-(4-(4-trifluoromethylpiperidin-1-yl)benzamido)phenyl)amino)phenyl)-1H-pyrrole-3-carboxamide], the “Activity (%)” value is reported as 21%.

With CCn1c(C)ccc1C(=O)Nc1ccc(Nc2ccc(NC(=O)c3ccc(N4CCC(O)CC4)cc3)cc2)cc1 [Compound 900] the “Activity (%)” value was 24%.

With Cn1cccc1C(=O)Nc1ccc(Oc2ccc(NC(=O)c3ccc(N4CCC(O)CC4)cc3)cc2)cc1 [Compound 915, N-(4-(4-(4-(4-Hydroxypiperidin-1-yl)benzamido)phenoxy)phenyl)-1-methyl-1H-pyrrole-2-carboxamide] the “Activity (%)” value was 17%.

With Cn1ccc2cc(C(=O)Nc3ccc4c(cnn4-c4ccc(NC(=O)C5CC5)cc4)c3)ccc21 [Compound 930, N-(1-(4-(Cyclopropanecarboxamido)phenyl)-1H-indazol-5-yl)-1-methyl-1H-indole-5-carboxamide] the “Activity (%)” value was 12%.

For O=C(Nc1ccc(N2CCC(O)CC2)cc1)c1ccc2c(cnn2-c2ccc(NC(=O)C3CC3)cc2)c1 [Compound 945, 1-(4-(Cyclopropanecarboxamido)phenyl)-N-(4-(4-hydroxypiperidin-1-yl)phenyl)-1H-indazole-5-carboxamide], the “Activity (%)” value was 10%.

For O=C(Nc1ccc2c(ccn2-c2ccc(C(=O)NC3CC3)cc2)c1)c1ccc2c(ccn2CCN2CCOCC2)c1 [Compound 960, N-(1-(4-(Cyclopropylcarbamoyl)phenyl)-1H-indol-5-yl)-1-(2-morpholinoethyl)-1H-indole-5-carboxamide], the “Activity (%)” value was 17%.

For O=C(O)CNC(=O)Cn1ccc2cc(NC(=O)c3ccc(-n4ccc5cc(NC(=O)c6ccc(N7CCC(O)CC7)cc6)ccc54)cc3)ccc21 [Compound 975], the “Activity (%)” value was 17%.

O=C(Nc1ccc(-n2ncc3cc(O)ccc32)cc1)c1ccc(N2CCC(O)CC2)cc1 [Compound 990, N-(4-(5-(Hydroxy)-1H-indazol-1-yl)phenyl)-4-(4-hydroxypiperidin-1-yl)benzamide] was tested, and the “Activity (%)” value was 10%.

O=C(Nc1ccc2c(cnn2-c2ccc(NC(=O)c3cnc4cc[nH]c4c3)cc2)c1)c1ccc(N2CCC(O)CC2)cc1 [Compound 1005, N-(4-(5-(4-(4-Hydroxypiperidin-1-yl)benzamido)-1H-indazol-1-yl)phenyl)-1H-pyrrolo[3,2-b]pyridine-6-carboxamide] was tested, and the “Activity (%)” value was 13%.

With CCOC(=O)c1ccc(-n2ncc3cc(NC(=O)c4ccc(N5CCC(O)CC5)cc4)ccc32)cc1 [Compound 1030, Ethyl 4-(5-(4-(4-hydroxypiperidin-1-yl)benzamido)-1H-indazol-1-yl)benzoate] the “Activity (%)” value was 10%.

For N#CCNC(=O)c1ccc(-n2ncc3cc(NC(=O)c4ccc(N5CCC(O)CC5)cc4)ccc32)cc1 [Compound 1045, N-(Cyanomethyl)-4-(5-(4-(4-hydroxypiperidin-1-yl)benzamido)-1H-indazol-1-yl)benzamide], the “Activity (%)” value was 15%.

O=C(NC1CC1)c1ccc(-n2cnc3cc(NC(=O)c4cc5ccccc5[nH]4)ccc32)cc1 [Compound 1060, N-(1-(4-(Cyclopropylcarbamoyl)phenyl)-1H-benzo[d]imidazol-5-yl)-1H-indole-2-carboxamide] was tested, and the “Activity (%)” value was 18%.
